Assay type in all cases: biochemical
Assay [1] addresses T1, R878K mutated mAPA (Mus musculus, UniProt P16406, R878K).
T1 construct: made in house; host or cells: stably transfected CHO-K1 cells
T1 sequence (P16406 1-945 R878K): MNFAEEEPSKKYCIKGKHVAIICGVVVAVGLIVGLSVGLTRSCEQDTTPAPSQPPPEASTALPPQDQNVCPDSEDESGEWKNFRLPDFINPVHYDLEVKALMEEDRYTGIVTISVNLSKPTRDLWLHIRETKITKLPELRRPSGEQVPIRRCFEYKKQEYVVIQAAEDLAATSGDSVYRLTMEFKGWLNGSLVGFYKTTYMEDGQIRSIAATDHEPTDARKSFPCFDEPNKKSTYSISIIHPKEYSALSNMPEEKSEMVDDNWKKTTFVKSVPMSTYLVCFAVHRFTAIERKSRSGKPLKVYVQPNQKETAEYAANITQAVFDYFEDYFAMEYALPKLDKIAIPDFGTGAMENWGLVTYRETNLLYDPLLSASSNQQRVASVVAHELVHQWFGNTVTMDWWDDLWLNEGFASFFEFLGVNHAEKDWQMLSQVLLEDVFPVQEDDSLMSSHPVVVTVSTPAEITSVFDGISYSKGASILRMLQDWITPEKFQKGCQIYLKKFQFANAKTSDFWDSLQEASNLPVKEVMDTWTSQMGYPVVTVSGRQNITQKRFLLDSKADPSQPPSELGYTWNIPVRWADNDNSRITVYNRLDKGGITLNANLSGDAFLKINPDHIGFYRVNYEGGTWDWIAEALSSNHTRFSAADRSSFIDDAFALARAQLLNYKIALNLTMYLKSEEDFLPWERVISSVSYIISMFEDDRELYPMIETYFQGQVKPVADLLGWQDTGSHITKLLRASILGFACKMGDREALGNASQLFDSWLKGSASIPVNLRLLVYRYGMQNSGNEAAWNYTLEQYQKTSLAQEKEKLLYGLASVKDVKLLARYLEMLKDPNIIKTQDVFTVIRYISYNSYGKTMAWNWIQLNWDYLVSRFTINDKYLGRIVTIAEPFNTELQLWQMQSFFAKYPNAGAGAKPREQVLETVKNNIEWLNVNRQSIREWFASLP
Put plainly: Inhibition of GluNA hydrolysis by purified recombinant R878K His-mAPA. Conditions: R878K mAPA; for Ki: 0.5 mM GluNA, read-out: Ki. The protocol:
(§1) Enzyme assays were carried out for wild-type and mutated His-mAPAs in 50 mM Tris-HCl buffer, pH 7.4, with or without 4 mM CaCl2, by monitoring the rate of hydrolysis of GluNA, as previously described. The sensitivity to Ca^2+ of purified wild-type and mutated His-mAPA was determinated by incubating 0.5 mM GluNA with 0 to 4 mM CaCl2 in a final volume of 100 μl of 50 mM Tris-HCl buffer, pH 7.4. All the assays were performed in black 96-well plates (solid black 96-well flat-bottomed non-treated plates with no lid; Corning Costar). All of the enzymatic studies were performed such that substrate hydrolysis rates were maintained below 10% (initial rate conditions). The kinetic curves were monitored by following the increase in fluorescence at 460 nm (lex = 330 nm), induced by the release of the β-naphthylamide fluorogenic part of the substrate by APA. Fluorescence signals were monitored by counting photons with a spectrophotometer (Fusion universal microplate analyser; Packard) equipped with a temperature control device and a plate shaker. The kinetic parameters (Km and kcat) were determined from Michaelis-Menten plots, using GraphPad Prism 4 software (GraphPad) with a final concentration of substrate (GluNA) from 0.005 to 5 mM with or without 4 mM Ca^2+. For evaluation of the substrate specificity of APA with or without 4 mM Ca^2+, the rate of hydrolysis of […] additional substrates, α-L-aspartate-β-naphthylamide (AspNA), α-L-alanine-β-naphthylamide (AlaNA) and basic α-L-lysine-β-naphthylamide (LysNA), was determined under the same experimental conditions as described for GluNA. The sensitivity of wild-type and mutated His-mAPAs to inhibition by [(3S)-3-amino-4-sulfanyl-butane-1-sulfonic acid] (EC33), glutamate-thiol (GluSH), glutamate-phosphonic-acid (GluPO3H2), methionine-thiol (MetSH) and lysine-thiol (LysSH) was determined by establishing dose-dependent inhibition curves for a final GluNA concentration of 0.5 mM in the presence or absence of 4 mM CaCl2. These compounds being linear competitive inhibitors, their Ki were calculated from the formula Ki = IC50/ (1+ [GluNA]/Km).

Assay [2] has as its target T2, R878A mutated mAPA (Mus musculus, UniProt P16406, R878A).
T2 construct: made in house; host or cells: stably transfected CHO-K1 cells
T2 sequence (P16406 1-945 R878A): T1 sequence (P16406 1-945 R878K) with K878A
Put plainly: Inhibition of GluNA hydrolysis by purified recombinant R878A His-mAPA. Conditions: R878A mAPA; for Ki: 0.5 mM GluNA, read-out: Ki. The protocol: as §1

Assay [3] deals with T2, R878A mutated mAPA. Put plainly: Kinetic parameters of substrate hydrolysis by R878A His-mAPA. Here is the method:
as §1

Where a chain is given by its changes, count along the chain named. Like-named read-outs stand apart in the source and are kept apart here.

What is called Ki is the dissociation constant of the complex between target and ligand, obtained from inhibition or displacement. As usually defined, the Km is the concentration of substrate that gives half-maximal velocity. As usually defined, the kcat is the number of substrate molecules converted per active site and unit of time at saturation.

On to `N[C@H](CS)CCS(=O)(=O)O` [EC33, (3S)‐3‐amino‐4‐sulfanylbutane‐1‐sulfonic acid], for which the inhibitory constant (Ki) in assay [1] (4 mM Ca2+) stood at 1520 ± 126 nM; in assay [2] (4 mM Ca2+), 2000 ± 200 nM.
Regarding `N[C@H](CS)CCC(=O)O` [GluSH, (4S)-4-amino-5-sulfanylpentanoic acid], the “enhancement of inhibitory potency by 4 mM Ca2+ compared to Ki in the absence of Ca2+” value came to 6.6 fold in assay [1] and 1.7 fold in assay [2]. Moreover, the inhibition constant (Ki) in assay [1] (4 mM Ca2+) was 2100 ± 440 nM; in assay [1] (absence of calcium) it was greater than 10000 nM; in assay [2] (4 mM Ca2+), 983 ± 160 nM; in assay [2] (absence of calcium), 1720 ± 190 nM.
Regarding `C[C@H](N)C(=O)Nc1ccc2ccccc2c1` [HAlaβNA, α-L-alanine-β-naphthylamide], the values for the Km in assay [3] (4 mM Ca2+) and in assay [3] (no Ca2+) were 544 ± 74 µM and 651 ± 43.8 µM, respectively. Moreover, the kcat in assay [3] (4 mM Ca2+) amounted to 41.5 ± 1.6 s⁻¹; in assay [3] (no Ca2+), 12.6 ± 0.04 s⁻¹.
Taken in the same sequence, the figures for `N[C@@H](CC(=O)O)C(=O)Nc1ccc2ccccc2c1` [HAspβNA, α-L-aspartate-β-naphthylamide] were 199 ± 10.1 µM, 1220 ± 24.9 µM, 17.9 ± 0.2 s⁻¹ and 1.89 ± 0.2 s⁻¹.
For `N[C@@H](CCC(=O)O)C(=O)Nc1ccc2ccccc2c1` [HGluβNA, α-L-glutamyl-β-naphthylamide], in assay [3] (4 mM Ca2+), the Km was found to be 221 ± 4 µM and the kcat was found to be 22.4 ± 0.1 s⁻¹. Moreover, in assay [3] (no Ca2+), the Km came out at 1500 ± 79.6 µM and the kcat was found to be 4.95 ± 0.1 s⁻¹. Besides, in assay [3] (presence of Ca2+), the “decrease in hydrolysis velocity (kcat) compared to wild-type (factor)” value worked out at 4 and the “decrease in the affinity of the enzyme for the substrate compared to wild-type (factor)” value was determined as 6.
Consider `NCCCC[C@H](N)C(=O)Nc1ccc2ccccc2c1` [HLysβNA, α-L-lysine-β-naphthylamide], for which, in assay [3] (4 mM Ca2+), the Michaelis constant (Km) was found to be 159 ± 7.8 µM and the kcat is 11.6 ± 0.2 s⁻¹. Moreover, in assay [3] (no Ca2+), the Michaelis constant (Km) came out at 394 ± 57 µM and the turnover number (kcat) turned out to be 13.8 ± 0.7 s⁻¹.
As for `NCCCC[C@H](N)CS` [LysSH, (2S)-2,6-diaminohexane-1-thiol], the Ki stood at 13900 ± 390 nM in assay [1] (4 mM Ca2+), 378 ± 20 nM in assay [1] (absence of calcium), 7510 ± 660 nM in assay [2] (4 mM Ca2+) and 118 ± 13 nM in assay [2] (absence of calcium).
For `CSCC[C@H](N)CS` [MetSH] the same measures were 5140 ± 560 nM, 1250 ± 57 nM, 3220 ± 200 nM and 475 ± 140 nM.

The values above are taken from publication PMC5587309, “Involvement of arginine 878 together with Ca^2+ in mouse aminopeptidase A substrate specificity for N-terminal acidic amino-acid residues” (PLoS ONE, 2017).
